According to patent publication US20230310542A1, “EPIGENETIC MODIFIERS TO TREAT RETINAL DEGENERATIONS” (priority 2022, published 2023):

Key:
Assay type in all cases: in vivo, mouse
rd10 mice [1] = experiment: Visual function by OptoMotry optomotor reflex; settings: GSK ESD
Description: A Cerebral Mechanics OptoMotry system (CerebralMechanics Inc.) was used to evaluate visual function in control and GSK ESD rd10 mice. Spatial frequency (SF) threshold and contrast sensitivity (CS) were assessed using a video camera to monitor optomotor reflex. CS was assessed at a SF of 0.092 cycles/degree. SF was assessed at 100% contrast. The CS and SF thresholds were identified as the highest values that elicited the reflexive head movement. […] CS were measured three times on PN33-35, when control mice were blind.

rd10 mice retina = experiment: RT-PCR retinal gene expression, rd10 mice
Description: Whole retinas were isolated from animals by removing the sclera and most of the retinal pigmented epithelium (RPE) layer under PBS. The right eye retinas from each animal were taken for RNA extraction, cDNA preparation and RT-PCR. Immediately after isolation, tissue was flash frozen in liquid nitrogen and stored at −80° C. Left eye retinas from each animal were subjected to fixation, cryopreservation, sectioning, and immunofluorescence staining. RNA extraction and purification followed the manufacturer's protocol from RNeasy Mini Kit and RNA shredder (Qiagen). […] Primers purchased from Integrated DNA Technologies (IDT). For quantitative real-time PCR we used 2× iQ-SYBR Green PCR supermix from Bio-Rad. Samples in triplicate were run on an iQ5 Multicolor Real Time PCR Detection System (Bio-Rad). The relative expression level for each gene was calculated by the 2-ΔΔCt method and normalized to GAPDH.

Pde6b protein = experiment: Anti-PDE6B Western blot of retina; settings: rd10 mice, GSK PN9 till PN24 vs saline
Description: Both retinas from one animal were flash frozen together in liquid nitrogen and stored at −80° C. Samples for SDS-PAGE were prepared by resuspended retinas in 50 μl PBS. Laemmli sample buffer was added, samples were boiled for 10 min, resolved on Criterion TGX Precast Gel AnyKD (Bio-Rad), transferred to nitrocellulose membrane, and immunoblotted with antibodies anti-H3K9me2 or anti-H3K4me2 diluted 1:5000; anti-ACTB diluted 1:10000; anti-PDE6B (1:500). Secondary goat anti-rabbit/mouse HRP (Jackson Immuno-Research Laboratory, West Grove, PA) was diluted 1:5000. An ECL western blot detection system (Thermo Fisher Scientific) was used to visualize the bound of the primary antibody.

rod nuclei = experiment: Number of heterochromatin foci in rod nuclei, rd10 mice; settings: rd10 + GSK, PN24
H3K4me2, H3K9me2 = experiment: Chromatin immunoprecipitation (ChIP) on gene regulatory elements, WT retina; settings: WT mice, GSK PN9 till PN24
Description: Lysate preparation for ChIP was carried out. In brief, 10 mouse retinas were rapidly isolated and rinsed in PBS on ice. Cell suspensions in PBS were crosslinked with 1% formaldehyde for 15 min at room temperature, followed by quenching with 1 M glycine, incubation on ice for 5 min, and centrifugation for 7 min at 4,000 rpm at 4° C. Pellets were resuspended in 500 μl L-CHIP buffer (1% SDS, 10 mM EDTA, 50 mM Tris-HCl pH 8.0), 1 mM PMSF and PI, sonicated twice at setting 3 for 10 sec on Sonic Dismembrator (Fisher Scientific, Model 100). Protein concentrations were adjusted to 1 mg/ml with L-CHIP buffer. ChIP was performed and subjected to quantitative PCR, primers for genomic regions are specified in Table 2.

GFAP, IBA1 = experiment: Immunofluorescence labeling of GFAP and IBA1 in retina sections; settings: rd10, treated PN9 till PN24
Description: Fluorescence intensity was assessed using ImageJ software (Bethesda, MD).

rd10 mice [2] = experiment: GSK2879552 in artificial tears applied to the eyes of rd10 mice, rod gene expression; settings: solution in artificial tears, daily to both eyes, 5 μl
Description: A solution of GSK2879552 was prepared in artificial tears and applied daily to both eyes of rd10 mice in a volume of 5 μl.

[3] = GSK PN9 till PN24, compared with WT
[4] = treated PN9 till PN24 vs saline

O=C(O)c1ccc(CN2CCC(CN[C@@H]3C[C@H]3c3ccccc3)CC2)cc1 [GSK, GSK2879552]
contrast sensitivity preserved relative to WT (rd10 mice [1]; 0.092 c/d, PN33-35): approximately 50% | spatial frequency threshold (acuity) (rd10 mice [1]; 100% contrast, PN24-PN32 averaged, untreated around 0.085, WT maximum 0.4): around 0.240 cyc/deg | contrast sensitivity (rd10 mice [1]; at 0.092 c/d spatial frequency, PN33-35, WT maximum 95%): 43.4+/−14.6% | vision preserved relative to WT acuity (rd10 mice [1]; rd10 mice): around 60% | acuity over time PN24 to PN32 (rd10 mice [1]; data not shown): slowly increased | expression of cone genes except S-opsin (rd10 mice retina; GSK ESD PN9 till PN24): increased to WT levels | expression of Rho, Prph2, Nr2e3, Nrl, and Pde6b (rd10 mice retina; [3]): increased dramatically and reached WT level | expression of Sag, Rom1, Crx, Cnga1 and Cngb1 (rd10 mice retina; [3]): increased, but not to the WT level | RNA levels of H2-Aa, C1qa, Aif1 and Cx3cr1 (rd10 mice retina; GSK PN9 till PN24 vs saline): reduced | expression of cone markers (rd10 mice retina; GSK daily, PN24, rd10 slightly lower than WT): did not change it | gene expression of INL cell types (rd10 mice retina; GSK from PN30 till PN40, assayed PN40): did not change | expression of Rgr and Hes5 (rd10 mice retina; GSK treatment of rd10 mice): increase | expression of rod photoreceptor genes relative to GAPDH (rd10 mice retina; treated PN9 till PN24, assayed PN24, vs saline): increased expression of almost all rod genes | expression of most other retina cell type markers (rd10 mice retina; treated PN9 till PN24, except Rgr and Hes5): appeared to be decreased | expression of Capn2 and Aifm1 (rd10 mice retina; [4]): somewhat decreased | expression of apoptotic specific genes Bcl2, Apaf1, and Casp9 (rd10 mice retina; [4]): slightly decreased | expression of cone genes Thrb or Gnat2 (rd10 mice retina; [4]): slightly up-regulated | Pde6b protein in retina (Pde6b protein): three-fold increase | rod nuclei with three foci (rod nuclei; untreated rd10 3%): 20% | rod nuclei with two foci (rod nuclei; untreated rd10 26%): 45% | rod nuclei with one focus (rod nuclei; untreated rd10 72%): 35% | H3K4me2 at promoters/regulatory elements (Ccnd1, Sox2, Hes1, Rho, Pde6b) (H3K4me2, H3K9me2): increase in the methylation of H3K4 | H3K9me2 at regulatory elements of progenitor TF and rod specific genes (H3K4me2, H3K9me2): losing this inhibitory mark | Gfap gene expression and GFAP protein labeling (gliosis) (GFAP, IBA1): reductions in Muller cell activation | IBA1 labeling (microglia) (GFAP, IBA1; levels remained above WT): decreased | rod specific gene expression after topical application (rd10 mice [2]): Several rod specific genes were upregulated
